#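 96-well plates; 48 h exposure; 5 concentrations. Endpoints by linear interpolation between flanking doses. Not reached: highest tested concentration assigned. GI50 marks 50% less growth.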 Active and inactive are the calls of the source. Rule as the data show it: active = GI50 up to about 1.1 µM and inactive = higher.
# What was measured:
# Assay in all cases: DTP human tumour cell line panel, 48 h
# SNB-75 = system: SNB-75
# XF498 = system: XF498
# KM12 = system: KM12
# SNB-19 = system: SNB-19
# EKVX = system: EKVX
# 786-0 = system: 786-0
# Malme-3M = system: Malme-3M
# RXF 631 = system: RXF 631
# OVCAR-3 = system: OVCAR-3
# U-251 = system: U-251
# TK-10 = system: TK-10
# CCRF-CEM = system: CCRF-CEM
# OVCAR-5 = system: OVCAR-5
# SNB-78 = system: SNB-78
# SR = system: SR
# KM-20L2 = system: KM-20L2
# UO-31 = system: UO-31
# HT-29 = system: HT-29
# HCT-15 = system: HCT-15
# M14 = system: M14
# SW-620 = system: SW-620
# MOLT-4 = system: MOLT-4
# NCI-H226 = system: NCI-H226
# SK-MEL-2 = system: SK-MEL-2
# RXF 393 = system: RXF 393
# M19-MEL = system: M19-MEL
# OVCAR-4 = system: OVCAR-4
# CAKI-1 = system: CAKI-1
# IGROV-1 = system: IGROV-1
# DMS-114 = system: DMS-114
# SK-OV-3 = system: SK-OV-3
# HCT-116 = system: HCT-116
# DLD-1 = system: DLD-1
# HOP-62 = system: HOP-62
# NCI-H522 = system: NCI-H522
# RPMI-8226 = system: RPMI-8226
# HL-60 = system: HL-60
# NCI-H23 = system: NCI-H23
# NCI-H460 = system: NCI-H460
# HOP-92 = system: HOP-92
# SF-295 = system: SF-295
# LXFL 529 = system: LXFL 529
# HOP-18 = system: HOP-18
# K562 = system: K562
# DMS-273 = system: DMS-273
# SF-539 = system: SF-539
# COLO 205 = system: COLO 205
# UACC-62 = system: UACC-62
# SN12C = system: SN12C
# A498 = system: A498
# A549 = system: A549
# UACC-257 = system: UACC-257
# SK-MEL-5 = system: SK-MEL-5
# LOX IMVI = system: LOX IMVI
# OVCAR-8 = system: OVCAR-8
# ACHN = system: ACHN
# SF-268 = system: SF-268
# HCC 2998 = system: HCC 2998
# SK-MEL-28 = system: SK-MEL-28
smiles,measurement,setting,value
O=C1C2C3C=C4c5ccccc5N(c5ccccc5)C4(C2C(=O)N1c1ccc(Cl)cc1)[C@H]1C(=O)N(c2ccc(Cl)cc2)C(=O)[C@@H]31 (stereo partly drawn),GI50,SNB-75,> 100 µM (inactive)
same,GI50,XF498,> 100 µM (inactive)
same,GI50,KM12,> 100 µM (inactive)
same,GI50,SNB-19,> 100 µM (inactive)
same,GI50,EKVX,> 100 µM (inactive)
same,GI50,786-0,> 100 µM (inactive)
same,GI50,Malme-3M,> 100 µM (inactive)
same,GI50,RXF 631,6.49 µM (inactive)
same,GI50,OVCAR-3,> 100 µM (inactive)
same,GI50,U-251,> 100 µM (inactive)
same,GI50,TK-10,> 100 µM (inactive)
same,GI50,CCRF-CEM,> 100 µM (inactive)
same,GI50,OVCAR-5,> 100 µM (inactive)
same,GI50,SNB-78,> 100 µM (inactive)
same,GI50,SR,> 100 µM (inactive)
same,GI50,KM-20L2,> 100 µM (inactive)
same,GI50,UO-31,> 100 µM (inactive)
same,GI50,HT-29,> 100 µM (inactive)
same,GI50,HCT-15,> 100 µM
same,GI50,M14,35.7 µM (inactive)
same,GI50,SW-620,> 100 µM (inactive)
same,GI50,MOLT-4,> 100 µM (inactive)
same,GI50,NCI-H226,> 100 µM (inactive)
same,GI50,SK-MEL-2,> 100 µM (inactive)
same,GI50,RXF 393,> 100 µM (inactive)
same,GI50,M19-MEL,> 100 µM (inactive)
same,GI50,OVCAR-4,> 100 µM (inactive)
same,GI50,CAKI-1,14.7 µM (inactive)
same,GI50,IGROV-1,> 100 µM (inactive)
same,GI50,DMS-114,> 100 µM (inactive)
same,GI50,SK-OV-3,> 100 µM (inactive)
same,GI50,HCT-116,78.3 µM (inactive)
same,GI50,DLD-1,> 100 µM (inactive)
same,GI50,HOP-62,> 100 µM (inactive)
same,GI50,NCI-H522,82.6 µM (inactive)
same,GI50,RPMI-8226,22.2 µM (inactive)
same,GI50,HL-60,> 100 µM (inactive)
same,GI50,NCI-H23,> 100 µM (inactive)
same,GI50,NCI-H460,> 100 µM (inactive)
same,GI50,HOP-92,> 100 µM (inactive)
same,GI50,SF-295,> 100 µM (inactive)
same,GI50,LXFL 529,> 100 µM (inactive)
same,GI50,HOP-18,> 100 µM (inactive)
same,GI50,K562,> 100 µM (inactive)
same,GI50,DMS-273,> 100 µM (inactive)
same,GI50,SF-539,> 100 µM (inactive)
same,GI50,COLO 205,64.7 µM (inactive)
same,GI50,UACC-62,> 100 µM (inactive)
same,GI50,SN12C,> 100 µM (inactive)
same,GI50,A498,> 100 µM (inactive)
same,GI50,A549,> 100 µM (inactive)
same,GI50,UACC-257,> 100 µM (inactive)
same,GI50,SK-MEL-5,> 100 µM (inactive)
same,GI50,LOX IMVI,> 100 µM (inactive)
same,GI50,OVCAR-8,> 100 µM (inactive)
COc1ccc(C(=O)Nc2ccc(S(=O)(=O)NCC(=O)O)cc2)cc1,GI50,SNB-75,> 100 µM (inactive)
same,GI50,XF498,> 100 µM (inactive)
same,GI50,KM12,> 100 µM (inactive)
same,GI50,SNB-19,> 100 µM (inactive)
same,GI50,EKVX,> 100 µM (inactive)
same,GI50,786-0,> 100 µM (inactive)
same,GI50,Malme-3M,> 100 µM (inactive)
same,GI50,RXF 631,> 100 µM (inactive)
same,GI50,OVCAR-3,> 100 µM (inactive)
same,GI50,U-251,> 100 µM (inactive)
same,GI50,TK-10,> 100 µM (inactive)
same,GI50,CCRF-CEM,> 100 µM (inactive)
same,GI50,OVCAR-5,> 100 µM (inactive)
same,GI50,KM-20L2,> 100 µM (inactive)
same,GI50,UO-31,> 100 µM (inactive)
same,GI50,HT-29,> 100 µM (inactive)
same,GI50,HCT-15,> 100 µM
same,GI50,M14,> 100 µM (inactive)
same,GI50,SW-620,> 100 µM (inactive)
same,GI50,MOLT-4,> 100 µM (inactive)
same,GI50,SK-MEL-2,> 100 µM (inactive)
same,GI50,RXF 393,> 100 µM (inactive)
same,GI50,M19-MEL,> 100 µM (inactive)
same,GI50,ACHN,> 100 µM (inactive)
same,GI50,OVCAR-4,> 100 µM (inactive)
same,GI50,CAKI-1,> 100 µM (inactive)
same,GI50,IGROV-1,> 100 µM (inactive)
same,GI50,SK-OV-3,> 100 µM (inactive)
same,GI50,DLD-1,> 100 µM (inactive)
same,GI50,NCI-H522,> 100 µM (inactive)
same,GI50,RPMI-8226,> 100 µM (inactive)
same,GI50,SF-268,> 100 µM (inactive)
same,GI50,HL-60,> 100 µM (inactive)
same,GI50,NCI-H23,> 100 µM (inactive)
same,GI50,NCI-H460,> 100 µM (inactive)
same,GI50,HCC 2998,> 100 µM (inactive)
same,GI50,HOP-92,> 100 µM (inactive)
same,GI50,SF-295,> 100 µM (inactive)
same,GI50,LXFL 529,> 100 µM (inactive)
same,GI50,HOP-18,> 100 µM (inactive)
same,GI50,K562,> 100 µM (inactive)
same,GI50,DMS-273,> 100 µM (inactive)
same,GI50,SF-539,> 100 µM (inactive)
same,GI50,COLO 205,> 100 µM (inactive)
same,GI50,UACC-62,> 100 µM (inactive)
same,GI50,SN12C,> 100 µM (inactive)
same,GI50,A498,> 100 µM (inactive)
same,GI50,SK-MEL-28,> 100 µM (inactive)
same,GI50,A549,> 100 µM (inactive)
same,GI50,UACC-257,> 100 µM (inactive)
same,GI50,SK-MEL-5,> 100 µM (inactive)
same,GI50,LOX IMVI,> 100 µM (inactive)
same,GI50,OVCAR-8,> 100 µM (inactive)

# — ChEMBL document CHEMBL1201862, “PubChem BioAssay data set” (2004)
